According to patent US8445501B2, “Substituted 7-carboxamido-pyrrolo[3,2-d]pyrimidines” (Takeda GmbH, priority 2008, dated 2013):

Biological target: T1, human PDE5 (Homo sapiens, UniProt O76074)
T1 construct: from tissue; host or cells: platelets from fresh blood of human donors (lysate, 10,000 g supernatant)
Test: Inhibition of the type 5 phosphodiesterase (PDE5) activity, modified SPA test with platelet lysate
Format: biochemical
Conditions: PDE5 from human platelet lysate, 0.5 μM cGMP
Method: Method for Measuring Inhibition of the Type 5 Phosphodiesterase (PDE5) Activity:
As a source for human PDE5, platelets are used. For that purpose, 150 ml fresh blood from human donors anticoagulated with citrate [final concentration 0.3% (w/v)] is centrifuged at 200 g for 10 min to obtain the so-called platelet-rich-plasma (PRP) as a supernatant. 1/10 volume of ACD solution (85 mM Na3-citrate, 111 mM D-glucose, 71 mM citric acid, pH 4.4) is added to 9/10 volume of PRP. After centrifugation (1,400 g, 10 min) the cell pellet is resuspended in 3 ml homogenization buffer (NaCl 140 mM, KCl 3.8 mM, EGTA (ethylene glycol tetraacetic acid) 1 mM, MgCl2 1 mM, Tris-HCl 20 mM, beta-mercaptoethanol 1 mM, pH 8.2) plus protease-inhibitor mix giving rise to the final concentrations of 0.5 mM Pefablock (Roche), 10 μM Leupeptin, 5 μM Trypsininhibitor, 2 mM Benzamidin and 10 μM Pepstatin A. The suspension is sonified and thereafter centrifuged for 15 min at 10,000 g. The resulting supernatant (platelet lysate) is used for enzymatic testings.
PDE5A1 activity is inhibited by the compounds of the invention in a modified SPA (scintillation proximity assay) test, supplied by Amersham Biosciences (see procedural instructions “phosphodiesterase [3H]cAMP SPA enzyme assay, code TRKQ 7090”), carried out in 96-well microtitre plates (MTP's). The test volume is 100 μl and contains 20 mM Tris buffer (pH 7.4), 0.1 mg of BSA (bovine serum albumin)/ml, 5 mM Mg^2+, 1 μM motapizone, 10 nM PDE2 inhibitor 2-(3,4-dimethoxybenzyl)-7-[(1R,2R)-2-hydroxy-1-(2-phenylethyl)propyl]-5-methylimidazo[5,1-f][1,2,4]triazin-4(3H)-one, 0.5 μM cGMP (cyclic guanosine monophosphate) (including about 50,000 cpm of [3H]cGMP as a tracer), 1 μl of the respective compound dilution in dimethylsulfoxide (DMSO) and sufficient PDE5-containing platelet lysat (10,000×g supernatant, see above) to ensure that 10-20 wt % of the cGMP is converted under the said experimental conditions. […] After a preincubation of 5 min at 37° C., the reaction is started by adding the substrate (cGMP) and the assay is incubated for a further 15 min; after that, it is stopped by adding SPA beads (50 μl). In accordance with the manufacturer's instructions, the SPA beads had previously been resuspended in water, but are then diluted 1:3 (v/v) in water; the diluted solution also contains 3 mM […] (IBMX) to ensure a complete PDE activity stop. After the beads have been sedimented (>30 min), the MTP's are analyzed in commercially available luminescence detection de-vices. The corresponding IC50 values of the compounds for the inhibition of PDE activity are deter-mined from the concentration-effect curves by means of non-linear regression.

In order of rising “-log IC50 (mol/l)” value:
1. 4-(2-Cyclopropylmethoxy-4-fluoro-5-methoxy-phenyl)-5H-pyrrolo[3,2-d]pyrimidine-7-carboxylic acid ((R)-1-acetyl-pyrrolidin-3-yl)-amide [Example 103]  9.33
2. 4-(5-Cyclopropylmethoxy-benzo[1,3]dioxol-4-yl)-5H-pyrrolo[3,2-d]pyrimidine-7-carboxylic acid ((R)-1-propionyl-piperidin-3-yl)-amide [Example 47]  9.64
3. 4-({1-[4-(5-Cyclopropylmethoxy-benzo[1,3]dioxol-4-yl)-5H-pyrrolo[3,2-d]pyrimidin-7-yl]-methanoyl}-amino)-piperidine-1-carboxylic acid ethyl ester [Example 2]  10.01

In order of falling IC50:
1. CC(=O)N1CC[C@H](NC(=O)c2c[nH]c3c(-c4c(OCC5CC5)ccc5c4OCO5)ncnc23)C1 [Example 19, 4-(5-Cyclopropylmethoxy-benzo[1,3]dioxol-4-yl)-5H-pyrrolo[3,2-d]pyrimidine-7-carboxylic acid ((S)-1-acetyl-pyrrolidin-3-yl)-amide]  2.45 nM
2. O=CN1CC[C@H](NC(=O)c2c[nH]c3c(-c4c(OCC5CC5)ccc5c4OCO5)ncnc23)C1 [Example 18, 4-(5-Cyclopropylmethoxy-benzo[1,3]dioxol-4-yl)-5H-pyrrolo[3,2-d]pyrimidine-7-carboxylic acid ((S)-1-formyl-pyrrolidin-3-yl)-amide]  1.82 nM
3. COCC(=O)N1CC[C@H](NC(=O)c2c[nH]c3c(-c4c(OCC5CC5)ccc5c4OCO5)ncnc23)C1 [Example 21, 4-(5-Cyclopropylmethoxy-benzo[1,3]dioxol-4-yl)-5H-pyrrolo[3,2-d]pyrimidine-7-carboxylic acid [(S)-1-(2-methoxy-ethanoyl)-pyrrolidin-3-yl]amide]  1.82 nM
4. O=CN1CC[C@@H](NC(=O)c2c[nH]c3c(-c4c(OCC5CC5)ccc5c4OCO5)ncnc23)C1 [Example 14, 4-(5-Cyclopropylmethoxy-benzo[1,3]dioxol-4-yl)-5H-pyrrolo[3,2-d]pyrimidine-7-carboxylic acid ((R)-1-formyl-pyrrolidin-3-yl)-amide]  1.38 nM
5. COCC(=O)N[C@H]1CC[C@@H](NC(=O)c2c[nH]c3c(-c4c(OCC5CC5)ccc5c4OCO5)ncnc23)CC1 [Example 9, cis-4-(5-Cyclopropylmethoxy-benzo[1,3]dioxol-4-yl)-5H-pyrrolo[3,2-d]pyrimidine-7-carboxylic acid [4-(2-methoxy-ethanoylamino)-cyclohexyl]-amide]  1.15 nM
6. CC(=O)N1CC[C@@H](NC(=O)c2c[nH]c3c(-c4c(OCC5CC5)ccc5c4OCO5)ncnc23)C1 [Example 15, 4-(5-Cyclopropylmethoxy-benzo[1,3]dioxol-4-yl)-5H-pyrrolo[3,2-d]pyrimidine-7-carboxylic acid ((R)-1-acetyl-pyrrolidin-3-yl)-amide]  1 nM
7. COCC(=O)N1CC[C@@H](NC(=O)c2c[nH]c3c(-c4c(OCC5CC5)ccc5c4OCO5)ncnc23)C1 [Example 13, 4-(5-Cyclopropylmethoxy-benzo[1,3]dioxol-4-yl)-5H-pyrrolo[3,2-d]pyrimidine-7-carboxylic acid [(R)-1-(2-methoxy-acetyl)pyrrolidin-3-yl]-amide]  0.776 nM
8. O=C(N[C@H]1CCN(C(=O)C2CC2)C1)c1c[nH]c2c(-c3c(OCC4CC4)ccc4c3OCO4)ncnc12 [Example 20, 4-(5-Cyclopropylmethoxy-benzo[1,3]dioxol-4-yl)-5H-pyrrolo[3,2-d]pyrimidine-7-carboxylic acid [(S)-1-(1-cyclopropyl-methanoyl)-pyrrolidin-3-yl]amide]  0.537 nM
9. COCC(=O)N1CCC(NC(=O)c2c[nH]c3c(-c4c(OCC5CC5)ccc5c4OCO5)ncnc23)CC1 [Example 3, 4-(5-Cyclopropylmethoxy-benzo[1,3]dioxol-4-yl)-5H-pyrrolo[3,2-d]pyrimidine-7-carboxylic acid [1-(2-methoxy-acetyl)piperidin-4-yl]-amide]  0.398 nM
10. O=C(N[C@@H]1CCN(C(=O)C2CC2)C1)c1c[nH]c2c(-c3c(OCC4CC4)ccc4c3OCO4)ncnc12 [Example 16, 4-(5-Cyclopropylmethoxy-benzo[1,3]dioxol-4-yl)-5H-pyrrolo[3,2-d]pyrimidine-7-carboxylic acid [(R)-1-(1-cyclopropyl-methanoyl)-pyrrolidin-3-yl]amide]  0.389 nM
11. CCOC(=O)N1CC[C@@H](NC(=O)c2c[nH]c3c(-c4c(OCC5CC5)ccc5c4OCO5)ncnc23)C1 [Example 17, (R)-3-({1-[4-(5-Cyclopropylmethoxy-benzo[1,3]dioxol-4-yl)-5H-pyrrolo[3,2-d]pyrimidin-7-yl]-methanoyl}-amino)-pyrrolidine-1-carboxylic acid ethyl ester]  0.339 nM
12. O=C(N[C@H]1CC[C@@H](NC(=O)C2CC2)CC1)c1c[nH]c2c(-c3c(OCC4CC4)ccc4c3OCO4)ncnc12 [Example 8, cis-4-(5-Cyclopropylmethoxy-benzo[1,3]dioxol-4-yl)-5H-pyrrolo[3,2-d]pyrimidine-7-carboxylic acid {4-[(1-cyclopropyl-methanoyl)-amino]-cyclohexyl}-amide]  0.224 nM
13. CC(=O)N[C@H]1CC[C@@H](NC(=O)c2c[nH]c3c(-c4c(OCC5CC5)ccc5c4OCO5)ncnc23)CC1 [Example 7, cis-4-(5-Cyclopropylmethoxy-benzo[1,3]dioxol-4-yl)-5H-pyrrolo[3,2-d]pyrimidine-7-carboxylic acid (4-acetylamino-cyclohexyl)-amide]  0.214 nM
14. CCOC(=O)N[C@H]1CC[C@@H](NC(=O)c2c[nH]c3c(-c4c(OCC5CC5)ccc5c4OCO5)ncnc23)CC1 [Example 10, cis-[4-({1-[4-(5-Cyclopropylmethoxy-benzo[1,3]dioxol-4-yl)-5H-pyrrolo[3,2-d]pyrimidin-7-yl]-methanoyl}-amino)-cyclohexyl]-carbamic acid ethyl ester]  0.2 nM
15. CC(=O)N[C@H]1CC[C@H](NC(=O)c2c[nH]c3c(-c4c(OCC5CC5)ccc5c4OCO5)ncnc23)CC1 [Example 4, trans-4-(5-Cyclopropylmethoxy-benzo[1,3]dioxol-4-yl)-5H-pyrrolo[3,2-d]pyrimidine-7-carboxylic acid (4-acetylamino-cyclohexyl)-amide]  0.162 nM
16. CC(=O)N1CCC(NC(=O)c2c[nH]c3c(-c4c(OCC5CC5)ccc5c4OCO5)ncnc23)CC1 [Example 11, 4-(5-Cyclopropylmethoxy-benzo[1,3]dioxol-4-yl)-5H-pyrrolo[3,2-d]pyrimidine-7-carboxylic acid (1-acetyl-piperidin-4-yl)-amide]  0.145 nM
17. O=C(N[C@H]1CC[C@H](NC(=O)C2CC2)CC1)c1c[nH]c2c(-c3c(OCC4CC4)ccc4c3OCO4)ncnc12 [Example 5, trans-4-(5-Cyclopropylmethoxy-benzo[1,3]dioxol-4-yl)-5H-pyrrolo[3,2-d]pyrimidine-7-carboxylic acid {4-[(1-cyclopropyl-methanoyl)-amino]-cyclohexyl}-amide]  0.123 nM
18. CCOC(=O)N[C@H]1CC[C@H](NC(=O)c2c[nH]c3c(-c4c(OCC5CC5)ccc5c4OCO5)ncnc23)CC1 [Example 6, trans-[4-({1-[4-(5-Cyclopropylmethoxy-benzo[1,3]dioxol-4-yl)-5H-pyrrolo[3,2-d]pyrimidin-7-yl]-methanoyl}-amino)-cyclohexyl]-carbamic acid ethyl ester]  0.0851 nM
19. CCC(=O)N1CCC(NC(=O)c2c[nH]c3c(-c4c(OCC5CC5)ccc5c4OCO5)ncnc23)CC1 [Example 1, 4-(5-Cyclopropylmethoxy-1,3-benzodioxol-4-yl)-5H-pyrrolo[3,2-d]pyrimidine-7-carboxylic acid (1-propionyl-piperidin-4-yl)-amide]  0.0776 nM
20. O=C(NC1CCN(C(=O)C2CC2)CC1)c1c[nH]c2c(-c3c(OCC4CC4)ccc4c3OCO4)ncnc12 [Example 12, 4-(5-Cyclopropylmethoxy-benzo[1,3]dioxol-4-yl)-5H-pyrrolo[3,2-d]pyrimidine-7-carboxylic acid [1-(1-cyclopropyl-methanoyl)-piperidin-4-yl]amide]  0.0692 nM
